Experimental data from paper PMC7547832 (Journal of Fluorine Chemistry, 2020).

Columns and labels:
Type in all cases: cell-based
[1] = Toxicity studies, microtetrazolium test; settings: dog, MDCK cells (ATCC CCL-34)
[2] = tested on: Influenza virus A/Puerto Rico/8/34 (H1N1); settings: ratio of CC50 to IC50, MDCK cell line
Coxsackie virus B3 = assay: Cell protection assay, Coxsackie virus B3 in Vero cells; settings: for IC50: Enterovirus B, B3, Vero, 72 h; for SI (selectivity index): ratio of CC50 to IC50, Coxsackie virus B3, Vero cell line

## COC(=O)c1c(-c2ccc(OC)c(OC)c2)oc2c(F)c(F)c(F)c(F)c2c1=O [Compound 4a, Methyl 5,6,7,8-tetrafluoro-2-(3,4-dimethoxyphenyl)-4-oxo-4H-chromene-3-carboxylate]
[1]
  CC50 at 48 h: 109 ± 8 µM
[2]
  SI (selectivity index): 2
Coxsackie virus B3
  IC50: > 61 µM

## COC(=O)c1c(-c2ccc(OC)c(OC)c2)oc2c(F)c(F)c(F)cc2c1=O [Compound 5а, Methyl 6,7,8-trifluoro-2-(3,4-dimethoxyphenyl)-4-oxo-4H-chromene-3-carboxylate]
[1]
  CC50 at 48 h: 508 ± 32 µM
[2]
  SI (selectivity index): 16
Coxsackie virus B3
  IC50: 635 ± 42 µM

## COC(=O)c1c(-c2ccc(OC)c(OC)c2)oc2c(F)c(-n3ccnc3)c(F)c(F)c2c1=O [Compound 6a, Methyl 5,6,8-trifluoro-2-(3,4-dimethoxyphenyl)-7-(1H-imidazol-1-yl)-4-oxo-4H-chromene-3-carboxylate]
[1]
  CC50 at 48 h: 61 ± 4 µM
[2]
  SI (selectivity index): 5
Coxsackie virus B3
  IC50: > 65 µM

## COC(=O)c1c(-c2ccc(OC)c(OC)c2)oc2c(F)c(-n3ccnc3)c(F)cc2c1=O [Compound 7а, Methyl 6,8-difluoro-2-(3,4-dimethoxyphenyl)-7-(1H-imidazol-1-yl)-4-oxo-4H-chromene-3-carboxylate]
[1]
  CC50 at 48 h: > 679 µM
Coxsackie virus B3
  IC50: > 226 µM

## COC(=O)c1c(-c2ccc(OC)cc2)oc2c(F)c(-n3ccnc3)c(F)c(O)c2c1=O [Compound 8b, Methyl 6,8-difluoro-5-hydroxy-7-(1H-imidazol-1-yl)-2-(4-methoxyphenyl)-4-oxo-4H-chromene-3-carboxylate]
[1]
  CC50 at 48 h: 629 ± 41 µM
[2]
  SI (selectivity index): 16

## COc1ccc(-c2cc(=O)c3c(F)c(F)c(-n4ccnc4)c(F)c3o2)cc1OC [Compound 13, 5,6,8-Trifluoro-2-(3,4-dimethoxyphenyl)-7-(1H-imidazol-1-yl)-4H-chromene-4-one]
[1]
  CC50 at 48 h: > 746 µM
Coxsackie virus B3
  IC50: 29 ± 4 µM
  SI (selectivity index): 26
Coxsackie virus B3; Vero cell culture
  antiviral properties against the Coxsackie virus B3 (in words): demonstrated antiviral properties against the Coxsackie virus B3

## NC(=O)c1ncn([C@@H]2O[C@H](CO)[C@@H](O)[C@H]2O)n1 [ribavirin, reference compound]
[1]
  CC50 at 48 h: > 2130 µM
Coxsackie virus B3
  IC50: 34 ± 4 µM
  SI (selectivity index): >63
